Results taken from US6596721B2, “Stable crystalline (6R) -tetrahydrofolic acid” (Eprova AG, priority 1994, dated 2003).

Experiment: Stability on storage under severe conditions at 60° C. in the air (remaining tetrahydrofolic acid content by HPLC, colour)
Format: physicochemical
Conditions: for Colour / discoloration: after a prolonged test period at 60° C. in the air
Procedure: The tetrahydrofolic acid contents and the isomer contents given in the following examples were in each case determined by HPLC. All tetrahydrofolic acid contents are based on the anhydrous substance.
To determine the stability of crystalline (6S)- and (6R)-tetrahydrofolic acid, the substances together with comparison samples were stored under severe conditions at 60° C. in the air. The remaining tetrahydrofolic acid content was measured at periodic intervals and is shown in comparison with the initial value.
In contrast, the other products which are included for comparison reasons discolor rapidly to a high degree.
The substances employed for the stability tests were prepared as follows:
crystalline (6S)-tetrahydrofolic acid as in Example 6 of the present patent application crystalline (6R)-tetrahydrofolic acid as in Example 9 of the present patent application “Yamanouchi's crystalline (6R,S)-tetrahydrofolic acid” as in DE-OS 2 323 124, Example 3
amorphous (6S)-tetrahydrofolic acid (6S)-tetrahydrofolic acid is dissolved in acetic acid and precipitated using diethyl ether
amorphous (6R)-tetrahydrofolic acid (6R)-tetrahydrofolic acid is dissolved in acetic acid and precipitated using diethyl ether
amorphous (6R,S)-tetrahydrofolic acid (6R,S)-tetrahydrofolic acid is dissolved in acetic acid and precipitated using diethyl ether.

[1] = 0 days (initial value), 60° C. in air

Structure (SMILES)	Remaining tetrahydrofolic acid content in comparison with the initial value [1]	Remaining tetrahydrofolic acid content in comparison with the initial value (2 days at 60° C. in air)	Remaining tetrahydrofolic acid content in comparison with the initial value (13 days at 60° C. in air)	Remaining tetrahydrofolic acid content in comparison with the initial value (21 days at 60° C. in air)	Remaining tetrahydrofolic acid content in comparison with the initial value (57 days at 60° C. in air)	Remaining tetrahydrofolic acid content in comparison with the initial value (6 days at 60° C. in air)	Remaining tetrahydrofolic acid content in comparison with the initial value (28 days at 60° C. in air)	Remaining tetrahydrofolic acid content in comparison with the initial value (360 days at 60° C. in air)	Colour / discoloration	Remaining tetrahydrofolic acid content in comparison with the initial value (0 h)	Remaining tetrahydrofolic acid content in comparison with the initial value (48 h)	Remaining tetrahydrofolic acid content in comparison with the initial value (144 h)	Remaining tetrahydrofolic acid content in comparison with the initial value (312 h)	Remaining tetrahydrofolic acid content in comparison with the initial value (504 h)	Remaining tetrahydrofolic acid content in comparison with the initial value (1368 h)
Nc1nc2c(c(=O)[nH]1)N[C@H](CNc1ccc(C(=O)N[C@@H](CCC(=O)O)C(=O)O)cc1)CN2 [Yamanouchi's crystalline (6R,S)-tetrahydrofolic acid]	100.0%	83.6%	48.6%	31.0%	13.4%										
Nc1nc2c(c(=O)[nH]1)N[C@H](CNc1ccc(C(=O)N[C@@H](CCC(=O)O)C(=O)O)cc1)CN2 [amorphous (6R)-tetrahydrofolic acid, (6R)-tetrahydrofolic acid]	100.0%	70.5%	29.1%	21.6%	9.8%										
Nc1nc2c(c(=O)[nH]1)N[C@H](CNc1ccc(C(=O)N[C@@H](CCC(=O)O)C(=O)O)cc1)CN2 (mixture of isomers) [amorphous (6R,S)-tetrahydrofolic acid, (6R,S)-tetrahydrofolic acid]	100.0%	53.4%	17.4%	13.2%											
Nc1nc2c(c(=O)[nH]1)N[C@@H](CNc1ccc(C(=O)N[C@@H](CCC(=O)O)C(=O)O)cc1)CN2 [Crystalline (6S)-tetrahydrofolic acid, (6S)-tetrahydrofolic acid]	100.0%	100.1%	98.7%	103.6%	101.2%	102.5%	103.1%	93.3%	remain very pale, almost white						
Nc1nc(=O)c2c([nH]1)NC[C@@H](CNc1ccc(C(=O)N[C@@H](CCC(=O)O)C(=O)O)cc1)N2 [Crystalline (6R)-tetrahydrofolic acid, N-[4-[[(2-amino-1,4,5,6,7,8-hexahydro-4-oxo-(6R)-pteridinyl)methyl]amino]benzoyl]-Lglutamic acid]									remain very pale, almost white	100.0%	96.4%	96.1%	93.3%	92.7%	82.0%
Nc1nc2c(c(=O)[nH]1)N[C@@H](CNc1ccc(C(=O)N[C@@H](CCC(=O)O)C(=O)O)cc1)CN2 [Amorphous (6S)-tetrahydrofolic acid, (6S)-tetrahydrofolic acid]	100.0%	60.4%	13.7%	7.9%											
